The values below are quoted from earlier work in patent US20120171270A1, “DUAL ACTION ORGANIC FORMULATION TO CONTROL TWO STAGES OF INSECT PESTS” (priority 2010, published 2012).

Series [1] deals with gypsy moth.
Series [2] has as its system gypsy moth larvae. To be noted: 3-day exposure; 13-day evaluation; 2nd instar larvae; red oak leaf disks.
Series [3] deals with gypsy moth larvae.
The test system of series [4] is gypsy moth larvae. To be noted: 16 hours after a 2 minute crawling exposure to glass coated with a 4 mg/litre spinosad solution.
The test system of series [5] is mammalian and avian species. To be noted: in vivo.

Turning to `CCCCCCCCCC[C@H]1O[C@H]1CCCCC(C)C` [disparlure], the “mating in low-density populations at lower doses” value in series [1] (15, 6, and 3 grams per acre) is reported as “can be suppressed”. For the same molecule, in series [1] (30 grams per acre), the “mating in low-density populations” value is reported as “suppresses mating”.

Consider spinosad, for which the LC50 in series [2] was 0.0015 mg AI/cm2. Moreover, the “population reduction at low application rate” value in series [3] (application rate of 0.75 mg/litre) is recorded as “large population reductions”. Further, in series [3] (applied to foliage to run-off, 2nd instar larvae, laboratory and field), the “concentrations that effectively controlled larvae” value was 3 ± 50 mg/L. The larval population reduction in series [3] (at 3 to 50 mg/litre applied to run-off) was 95±100%. Moreover, the “toxicity in the laboratory, efficacy and persistence in the field versus permethrin” value in series [3] (in vivo) is listed as “comparable to those achieved with permethrin”. Besides, the treated larvae paralyzed in series [4] is reported as 50%. Further, the “toxicity to mammalian and avian species” value in series [5] is on record as “little or no toxicity”.
